The source of these data is patent US10167300B2, “Metalloenzyme inhibitor compounds as fungicides” (priority 2014, dated 2019).

This experiment is described as follows: Type B (low volume, EC formulation, track sprayer 200 L/ha) assay, leaf blotch of wheat, SEPTTR field isolate (FI SEPTTR). Type of experiment: in vivo, Mycosphaerella graminicola on wheat plants (variety Yuma). As to conditions: Zymoseptoria tritici, 72 h, 100 g/ha. On the procedure:
Example A: Evaluation of Fungicidal Activity: Leaf Blotch of Wheat (Mycosphaerella graminicola; Anamorph: Septoria tritici; Bayer Code SEPTTR)
For Type A assays, technical grades of the experimental fungicides in Table 4 below were dissolved in acetone, and then mixed with nine volumes of water containing 110 ppm Triton X-100. The fungicide solutions were applied onto wheat seedlings using an automated booth sprayer. For Type B assays, emulsifiable concentrate (EC) formulations of technical grades of the experimental fungicides in Table 4 below were prepared at 10% (w/v), and then mixed with 150 volumes of 0.1% Trycol 5941. These solutions were applied onto wheat seedlings using an automated track sprayer at 200 L/ha. All sprayed plants were allowed to air dry prior to further handling.
Wheat plants (variety Yuma) were grown from seed in a greenhouse in 50% mineral soil/50% soil-less Metro mix until the first leaf was fully emerged, with 7-10 seedlings per pot. Prior to or after application of experimental fungicides, plants were inoculated either with spores of a standard laboratory SEPTTR isolate (SI SEPTTR) or with spores from a SEPTTR field isolate collected from Wellsbourne, England in 2012 (FI SEPTTR). After inoculation the plants were kept for 3 days at 20° C. in 100% relative humidity (one day in a dark dew chamber followed by two days in a lighted dew chamber). Plants were then transferred to a 20° C. greenhouse for disease development. When disease symptoms were fully expressed on untreated plants, infection levels on treated plants were assessed on a scale of 0 to 100 percent disease severity. Percent disease control was calculated using the ratio of disease severity on treated plants relative to untreated plants.

The mark [1] stands for this setting: field isolate, low volume EC, 3 Day Curative, wheat (Yuma), read-out: Disease Control, FI SEPTTR Type B Assay (100 g/ha) 3 DC.
Where [2] appears, read: field isolate, low volume EC, 3 Day Protectant, wheat (Yuma), read-out: Disease Control, FI SEPTTR Type B Assay (100 g/ha) 3 DP.
Setting [3] is: SEPTTR field isolate, low volume Type B assay, 3 Day Curative, wheat leaf blotch, read-out: Disease Control, FI SEPTTR Type B Assay (100 g/ha) 3 DC.
The mark [4] stands for this setting: SEPTTR field isolate, low volume Type B assay, 3 Day Protectant, wheat leaf blotch, read-out: Disease Control, FI SEPTTR Type B Assay (100 g/ha) 3 DP.

Read-outs that look alike come from different tables or passages of the source.

For `CC(C)(C)C(O)(Cc1cccnc1)c1ccc(-c2ccc(C3(C#N)CC3)cc2)cn1` (stereo not shown) [Compound 227], the pest or weed control at 100 g/ha is, setting by setting: under setting [1], under 40%; under setting [2], 40 to 59%.
In the case of `CC(C)(C)C(O)(Cc1cncnc1)c1ccc(-c2ccc(OCC(F)(F)F)nc2)cn1` (stereo not shown) [Compound 195], the pest or weed control at 100 g/ha was under 40% under setting [1] and 40 to 59% under setting [2].
Regarding `COC(c1cncnc1)(c1ccc(-c2ccc(OC(F)(F)F)cc2F)cn1)C(C)C` (stereo not shown) [Compound 249], the pest or weed control at 100 g/ha runs as follows: under setting [1], 60 to 79%; under setting [2], 80 to 100%.
For the compound `C#CCOC(c1cncnc1)(c1ccc(-c2ccc(OC(F)(F)F)cc2)cn1)C1CC1` (stereo not shown) [Compound 255], the pest or weed control at 100 g/ha is, setting by setting: under setting [1], under 40%; under setting [2], 60 to 79%.
As to `C#CCOC(O)(c1cncnc1)c1ccc(-c2ccc(OC(F)(F)F)cc2)cn1` (stereo not shown) [Compound 243], the pest or weed control at 100 g/ha under setting [1] is under 40% and the pest or weed control at 100 g/ha under setting [2] lay within 80 to 100%.
As to `COc1ncncc1C(O)(c1ccc(-c2ccc(OC(F)F)cc2)cn1)C(C)(C)C` (stereo not shown) [Compound 273], the pest or weed control at 100 g/ha was under 40% under setting [3] and 80 to 100% under setting [4].
On the same counts, the results for `CCC(OC)(c1cncnc1)c1ccc(-c2ccc(OC(F)(F)F)cc2F)cn1` (stereo not shown) [Compound 269] are 40 to 59% and 80 to 100%.
For the compound `COC(C)(c1cncnc1)c1ccc(-c2ccc(OC(F)(F)F)cc2F)cn1` (stereo not shown) [Compound 206], the pest or weed control at 100 g/ha was under 40% under setting [1] and 40 to 59% under setting [2].
For `COC(c1cncnc1)(c1ccc(-c2ccc(OC(F)(F)F)cc2F)cn1)C(C)(C)C` (stereo not shown) [Compound 211], the pest or weed control at 100 g/ha under setting [1] was 80 to 100% and the pest or weed control at 100 g/ha under setting [2] lay in the range of 80 to 100%.
For the compound `CO/N=C(/C)c1ccc(-c2ccc(C(O)(c3cncnc3)C(C)(C)C)nc2)cc1` (stereo not shown) [Compound 132, (Z)-1-(4-(6-(1-hydroxy-2,2-dimethyl-1-(pyrimidin-5-yl)propyl)pyridin-3-yl)phenyl)ethanone O-methyl oxime], the pest or weed control at 100 g/ha runs as follows: under setting [1], 80 to 100%; under setting [2], 80 to 100%.
For `CC#CC(OC)(c1cncnc1)c1ccc(-c2ccc(OC(F)(F)F)cc2F)cn1` (stereo not shown) [Compound 182], the pest or weed control at 100 g/ha is under 40% under setting [1] and 60 to 79% under setting [2].
Regarding `CC(C)(C)C(O)(Cc1cncnc1)c1ccc(-c2ccc(SC(F)(F)F)cc2)cn1` (stereo not shown) [Compound 219], the pest or weed control at 100 g/ha under setting [1] was 40 to 59% and the pest or weed control at 100 g/ha under setting [2] fell in the range of 60 to 79%.
On the same counts, the results for `CCc1cc(C(C)(C)C#N)ccc1-c1ccc(C(O)(c2cncnc2)C(C)(C)C)nc1` (stereo not shown) [Compound 179] are 80 to 100% and 80 to 100%.
On the same counts, the results for `CC(O)(c1cncnc1)c1ccc(-c2ccc(OC(F)(F)F)cc2F)cn1` (stereo not shown) [Compound 221] are under 40% and 40 to 59%.
With `CC(C)(C)C(O)(Cc1cncnc1)c1ccc(-c2ccc(C3(C#N)CC3)cc2)cn1` (stereo not shown) [Compound 178], the pest or weed control at 100 g/ha by setting is: under setting [1], under 40%; under setting [2], 60 to 79%.
For the compound `COC(c1cncnc1)(c1ccc(-c2ccc(C(C)(C)C#N)cc2F)cn1)C(C)(C)C` (stereo not shown) [Compound 228], the pest or weed control at 100 g/ha reads like this: under setting [1], 80 to 100%; under setting [2], 80 to 100%.
As to `Cc1cc(OC(F)(F)F)ccc1-c1ccc(C(O)(c2cnccn2)C(C)(C)C)nc1` (stereo not shown) [Compound 224], the pest or weed control at 100 g/ha reads like this: under setting [1], 40 to 59%; under setting [2], 60 to 79%.
Regarding `CSc1cc(C(C)(C)C#N)ccc1-c1ccc(C(O)(c2cncnc2)C(C)(C)C)nc1` (stereo not shown) [Compound 216, 2-(4-(6-(1-hydroxy-2,2-dimethyl-1-(pyrimidin-5-yl)propyl)pyridin-3-yl)-3-(methylthio)phenyl)-2-methylpropanenitrile], the pest or weed control at 100 g/ha under setting [1] fell in the range of 80 to 100% and the pest or weed control at 100 g/ha under setting [2] lay in the range of 80 to 100%.
As to `COC(c1cncnc1)(c1ccc(-c2ccc(OC(F)(F)F)cc2C)cn1)C(C)(C)C` (stereo not shown) [Compound 261], the pest or weed control at 100 g/ha was 80 to 100% under setting [3] and 80 to 100% under setting [4].
With `Cc1cc(C(C)(C)C#N)cnc1-c1ccc(C(O)(c2cncnc2)C(C)(C)C)nc1` (stereo not shown) [Compound 239], the pest or weed control at 100 g/ha by setting is: under setting [1], 80 to 100%; under setting [2], 80 to 100%.
Consider `C#CCOC(c1cncnc1)(c1ccc(-c2ccc(OC(F)(F)F)cc2F)cn1)C(C)(C)C` (stereo not shown) [Compound 189], for which the pest or weed control at 100 g/ha under setting [1] fell in the range of 40 to 59% and the pest or weed control at 100 g/ha under setting [2] fell in the range of 80 to 100%.
On the same counts, the results for `CC(C)(C)C(O)(c1cncnc1)c1ccc(-c2ccc(C3(C#N)CCC3)cc2F)cn1` (stereo not shown) [Compound 251] are 80 to 100% and 80 to 100%.
On the same counts, the results for `CC#CC(OCC)(c1cncnc1)c1ccc(-c2ccc(OC(F)(F)F)cc2F)cn1` (stereo not shown) [Compound 204] are under 40% and 60 to 79%.
Take `CC(C)(C)C(O)(c1ccc(-c2ccc(OC(F)(F)F)cc2)cn1)c1cccnc1Cl` (stereo not shown) [Compound 235]: the pest or weed control at 100 g/ha is, setting by setting: under setting [1], 60 to 79%; under setting [2], 80 to 100%.
With `CCOC(CC)(c1cncnc1)c1ccc(-c2ccc(OC(F)(F)F)cc2)cn1` (stereo not shown) [Compound 244], the pest or weed control at 100 g/ha reads like this: under setting [1], under 40%; under setting [2], 40 to 59%.
As for `CC(C)(C)C(O)(c1cncnc1)c1ccc(-c2c(F)cc(OC(F)(F)F)cc2F)cn1` (stereo not shown) [Compound 210], the pest or weed control at 100 g/ha by setting is: under setting [1], 80 to 100%; under setting [2], 80 to 100%.
Regarding `CC(C)C(O)(c1cncnc1)c1ccc(-c2ccc(OC(F)(F)F)cc2F)cn1` (stereo not shown) [Compound 230], the pest or weed control at 100 g/ha reads like this: under setting [1], under 40%; under setting [2], 80 to 100%.
Regarding `COC(c1cncnc1)(c1ccc(-c2ccc(C(C)(C)C#N)cc2C)cn1)C(C)(C)C` (stereo not shown) [Compound 267], the pest or weed control at 100 g/ha by setting is: under setting [3], 60 to 79%; under setting [4], 80 to 100%.
Turning to `CCOC(CC)(c1cncnc1)c1ccc(-c2ccc(OC(F)(F)F)cc2F)cn1` (stereo not shown) [Compound 190], the pest or weed control at 100 g/ha runs as follows: under setting [1], 60 to 79%; under setting [2], 40 to 59%.
Regarding `COC(c1cncnc1)(c1ccc(-c2ccc(C(C)(C)C#N)cc2)cn1)C(C)(C)C` (stereo not shown) [Compound 214], the pest or weed control at 100 g/ha was under 40% under setting [1] and 80 to 100% under setting [2].
Take `C#CCOC(C)(c1cncnc1)c1ccc(-c2ccc(OC(F)(F)F)cc2F)cn1` (stereo not shown) [Compound 237]: the pest or weed control at 100 g/ha by setting is: under setting [1], under 40%; under setting [2], 40 to 59%.
Turning to `COc1ncncc1C(O)(c1ccc(-c2ccc(OCC(F)(F)F)nc2)cn1)C(C)(C)C` (stereo not shown) [Compound 218], the pest or weed control at 100 g/ha is, setting by setting: under setting [1], under 40%; under setting [2], 80 to 100%.
Turning to `COC(c1cncnc1)(c1ccc(-c2ccc(OC(F)(F)F)cn2)cn1)C(C)(C)C` (stereo not shown) [Compound 173], the pest or weed control at 100 g/ha lay in the range of 80 to 100% under setting [1] and 80 to 100% under setting [2].
Turning to `COC(c1cncnc1)(c1ccc(-c2ccc(OC(F)(F)F)cc2F)cn1)C1CC1` (stereo not shown) [Compound 200], the pest or weed control at 100 g/ha was under 40% under setting [1] and 80 to 100% under setting [2].
On to `CC(C)(C)C(O)(c1cncc(F)c1)c1ccc(-c2ccc(OC(F)(F)F)cc2)cn1` (stereo not shown) [Compound 202], for which the pest or weed control at 100 g/ha is, setting by setting: under setting [1], 60 to 79%; under setting [2], 60 to 79%.
